# Test results taken from patent US9238019B2, “Antitussive and bronchodilator uses for enaminone ester” (UNIVERSITY OF KUWAIT, priority 2006, dated 2016).
# Key:
# Solid-state stability = type: physicochemical; conditions: room temperature
# [1] = tested on: guinea pig bronchial preparations pre-contracted with carbachol; assay: Agonist-induced relaxation of guinea pig bronchial ring preparations pre-contracted with carbachol; conditions: concentration response curves repeated after one hour; compared with salbutamol
# Protocol: Two groups of guinea pigs, each group containing twelve guinea pigs, were decapitated under light ether anesthesia and the tracheas were dissected out with the lungs en bloc. The origin of bifurcation of the trachea into bronchioles was identified after removal of the excess connective tissue. The isolated bronchioles were cut into ring segments of 4 mm in length. The preparations were mounted in organ baths containing 25 mL Krebs-Henseleit (KH) solution at pH 7.4, maintained at 37° C. and aerated with a 95% O2 and 5% CO2 mixture. The preparations were left to stabilize for 45 minutes, changing the KH solution at 15-minute intervals. A pre-tension of 0.75 gm was applied, and a stabilization period of 45 minutes was allowed until a stable baseline tone was obtained. Isolated segments of the bronchioles were pre-contracted with carbachol (3 μM). Responses of the carbachol pre-contracted bronchial ring segments to the different agonists were determined by measurement of changes in the isometric tension, using computerized automatic organ bath analyzing instruments.
# Bronchodilator responses to salbutamol (10^−9-3×10^−4 M) and enaminone ester E121 (10^−9-10^−4 M) were investigated on different preparations of the bronchioles. […] The bronchodilator responses were expressed as a percentage reduction of the carbachol induced pre-contraction. […]
# guinea pigs [2] = assay: Citric acid-induced cough in conscious guinea pigs (whole body plethysmography); type: in vivo, guinea pig; conditions: 100 mg/kg in DMSO intraperitoneally, 1 h before citric acid (0.6 M) aerosol; coughs counted over 15 min; vs vehicle group; FIG. 2
# Protocol: (§1) In order to test the effectiveness of enaminone ester E121 as an antitussive, two groups of guinea pigs were established. Group 1 was a control group, which consisted of ten guinea pigs, who were administered vehicle only (100% dimethyl sulfoxide [DMSO]) intraperitoneally. Group 2 was a test group, which consisted of ten guinea pigs, who were administered enaminone E121 (100 mg/kg in DMSO) intraperitoneally (i.e., via intraperitoneal injection). Each group was separately placed in a transparent whole body plythesmography box (Buxco, Troy, N.Y.) for testing one hour after administration of the vehicle or the enaminone ester E121, respectively.
# Each group was allowed a settling period in the whole body plethysmograph, after which baseline airway function was recorded for 2 minutes before administration of an aerosol. Animals in each group were then exposed to citric acid (0.6 M) aerosol for 10 minutes, during which cough and airway function were recorded, and for an additional 5 minutes thereafter (a total of 15 minutes). The aerosols were generated using a DeVilbiss aerogen ultrasonic nebulizer (DeVilbiss, Somerset, Pa.), the nebulized spray having an aerodynamic mass median diameter droplet size range of […] (manufacturer's indication). […]
# Coughs were recorded from conscious, unrestrained guinea pigs manually by a trained observer as confirmation. […]
# guinea pigs [3] = assay: Airway obstruction (enhanced pause, Penh) during citric acid aerosol exposure; type: in vivo, guinea pig; conditions: 100 mg/kg in DMSO intraperitoneally; citric acid (0.6 M) aerosol; vs vehicle group; FIG. 3
# Protocol: as §1
# Each group was allowed a settling period in the whole body plethysmograph, after which baseline airway function was recorded for 2 minutes before administration of an aerosol. Animals in each group were then exposed to citric acid (0.6 M) aerosol for 10 minutes, during which cough and airway function were recorded, and for an additional 5 minutes thereafter (a total of 15 minutes). […]
# The pressure differences between the main chamber of the whole body plethysmograph containing the animals and a reference chamber (box pressure signal) were measured. […]
smiles,measurement,setting,value
"CCOC(=O)C1C(=O)C=C(Nc2ccc(Cl)cc2)CC1C (stereo not shown) [enaminone E121, ethyl 4-[(4-chlorophenyl)amino]-6-methyl-2-oxocyclohex-3-en-1-oate]",stability of the solid,Solid-state stability,stable solid at room temperature
same,tachyphylaxis of airway smooth muscle relaxant effect,[1],lower levels of tachyphalaxis than salbutamol
same,number of coughs,guinea pigs [2],substantially lower incidence of coughs
same,"enhanced pause (Penh), bronchoconstriction or airway obstruction",guinea pigs [3],less bronchoconstriction or airway obstruction
